From patent US20010006660A1, “LOW-RIGIDITY LIPOSOMAL FORMULATION” (priority 1999, published 2001)

Assays:
[1] = Phase transition / destabilization temperature by differential scan calorimetry; type: physicochemical
Protocol: The formulations of liposomes were assessed for their ability to fuse with bacteria. The liposomes were prepared as described above and contained different lipid mixtures. These lipid mixtures were dipalmitoylphosphatidylcholine (DPPC): dimirystoylphosphatidylglycerol (DMPG), DPPC: soybean 1-α-phosphatidylinositol, sodium salt, (PI), and 1,2-di-o-hexadecyl-sn-glycero-3-phosphocholine (DHPC): DMPG. All lipid mixtures were used at ratios of 10:1. PI is negatively charged with a phase transition temperature (Tc) of 23° C., while DHPC is neutral with a Tc of 42° C. All three formulations have a Tc of about 29.5° C. […] The bacterial strain used was Pseudomonas aeruginosa strain 429.
Different tobramycin-encapsulated liposomal formulations were prepared according to Example 1 and analyzed by differential scan colorimetry. Using differential scan calorimetry, the temperatures of phase transition (TC) were calculated for the tobramycin-liposomal formulations listed in Table 2. All these formulations were then listed in vitro to assess the antibiotic kinetics of liberation from the liposomes. In addition, these formulations were tested in a non-infected mouse model as previously described (Omri et al. 1994, Antimicrob. Agents Chemother. 38:1090-1095) to assess the persistence of the liposomes in the lung.

[2] = system: Pseudomonas aeruginosa PA 508 (mucoid phenotype); experiment: Bactericidal activity in rat model of chronic pulmonary infection (agar beads); type: in vivo; settings: Sprague-Dawley rats
Protocol: To evaluate the bactericidal efficacy of a liposomal aminoglycoside formulation produced according to the present invention, male, pathogen-free, Sprague-Dawley rats weighing 175 to 225 g (Charles River) were used. Chronic infection in lungs was established by intratracheal administration of 5×10^5 CFU of Pseudomonas aeruginosa PA 508 (mucoid phenotype) prepared in agar beads. After 3 days, three doses (600 μg) of free or liposome-encapsulated tobramycin were given intratracheally at intervals of 16 h. The lipid mixture were DPPC:DMPG at a molar ratio of 10:1 (formula no 1) and DPPC:DMPC at a molar ration of 15:1 (formula no 2). Sixteen hours after the last treatment, the animals were sacrificed and the entire lungs were removed aseptically, weighed, and homogeneized as described previously for mice. Serial 10-fold dilutions of the homogenates in cold PBS were made and spread in triplicate on proteose peptone agar plates. Identification of P. aeruginosa was confirmed by specific cultures. CFU were counted after 24 hour incubations at 37° C. under 5% CO^2. Counts were expressed in log CFU per pair of lungs. PBS and PBS-liposomes were used as controls. A second experiment to study the bactericidal effect of the liposomal tobramycin preparation, produced according to the present invention, was carried out as for Table 4 with the following modifications: 1) liposomes were prepared with a 15:1 molar ratio of DPPC:DMPG (formula no. 3); and 2) only two doses of 240 μg of free or liposome-encapsulated tobramycin were administered to the rats.

Xanthomonas maltophilia [3] = experiment: In vitro bactericidal activity, viable bacterial counts in proteose peptone; type: cell-based; settings: free tobramycin 3,12 μg/ml, liposomes entrapped tobramycin 3,08 μg/ml
Protocol: To evaluate the bactericidal efficacy of the liposonal tobramycin formulation produced according to the present invention (DPPC/DMPG), in vitro tests were performed against different clinical strains: […] To culture tubes containing proteose peptone (29 ml) a minimal number of 10^8 CFU of bacteria in logarithmic phase (1 ml) and of one of the following preparations (100 μl) were added at time zero: free tobramycin, control liposomes or PBS. Experiments were done in triplicate. At times 1, 3, 6, and 16 hours following the addition of antibiotic or controls, 2 ml of samples were collected and serial 10-fold dilutions were made and spread in triplicate on proteose peptone agar plates for gram negative strains and on […] for S. aureus. CFU were counted after 24-hour and 48-hourS incubations at 37° C. under 5% CO2. Counts were expressed in log CFU per ml of culture media.

[4] = system: Pseudomonas aeruginosa (strain 429); experiment: MIC of clinical strain; type: cell-based
[5] = system: Burkholderia cepacia (strain ID-28369); experiment: MIC of clinical strain; type: cell-based
[6] = system: Escherichia coli (strain 1061 mn 88); experiment: MIC of clinical strain; type: cell-based
[7] = system: Staphylococcus aureus (strain LSPQ 2499); experiment: MIC of clinical strain; type: cell-based
Xanthomonas maltophilia [8] = experiment: MIC of clinical strain; type: cell-based; settings: Stenotrophomonas maltophilia
[9] = two doses of 240 μg intratracheally, '<significant count' = none or only rare cfu (0 to 6) on plates

Row | Molecule | phase transition temperature (Tc) [1] [°C] | log cfu/pair of lungs ([2]; three doses (600 μg) intratracheally at intervals of 16 h, '<significant count' = none or only rare cfu (0 to 4) on plates) | cfu/pair of lungs ([2]; three doses (600 μg) intratracheally at intervals of 16 h, '<significant count' = none or only rare cfu (0 to 4) on plates, counts <30 not statistically significant) | cfu/pair of lungs [2, 9] | log cfu/pair of lungs [2, 9] | Viable bacterial counts (cfu) (Xanthomonas maltophilia [3]; 0 h) | Viable bacterial counts (cfu) (Xanthomonas maltophilia [3]; 1 h after addition) | Viable bacterial counts (cfu) (Xanthomonas maltophilia [3]; 3 h after addition) | Viable bacterial counts (cfu) (Xanthomonas maltophilia [3]; 6 h after addition) | Viable bacterial counts (cfu) (Xanthomonas maltophilia [3]; 16 h after addition) | MIC [4] [µg/mL] | MIC [5] [µg/mL] | MIC [6] [µg/mL] | MIC [7] [µg/mL] | MIC (Xanthomonas maltophilia [8]) [µg/mL]
1 | soybean 1-α-phosphatidylinositol, sodium salt [PI] | 23 |  |  |  |  |  |  |  |  |  |  |  |  |  | 
2 | CCCCCCCCCCCCCCCCOC[C@H](COP(=O)([O-])OCC[N+](C)(C)C)OCCCCCCCCCCCCCCCC [DHPC, 1,2-di-o-hexadecyl-sn-glycero-3-phosphocholine] | 42 |  |  |  |  |  |  |  |  |  |  |  |  |  | 
3 | NC[C@H]1O[C@H](O[C@H]2[C@H](O)[C@@H](O[C@H]3O[C@H](CO)[C@@H](O)[C@H](N)[C@H]3O)[C@H](N)C[C@@H]2N)[C@H](N)C[C@@H]1O [Free tobramycin, tobramycin] |  | 7.10 log cfu/pair of lungs | 1.25 × 10^7 cfu/pair of lungs | 1.07 × 10^6 cfu/pair of lungs | 6.03 log cfu/pair of lungs | 3,7 × 10^10 cfu | 3,00 × 10^12 cfu | 8,20 × 10^14 cfu | 7,80 × 10^16 cfu | 8,57 × 10^18 cfu | ≥ 60 | ≥ 27 | ≥ 5 | ≥ 9 | > 5
